Source: patent publication US20100179137A1, “PYRIDONE COMPOUND” (priority 2007, published 2010)

Key:
[1] = biological target: T1, rat EP4 receptor (Rattus norvegicus, UniProt P43114); assay: Evaluation test on EP4 receptor affinity in rat ([3H]PGE2 receptor binding test); conditions: [3H]PGE2 0.3 nM, membrane fraction of rat EP4 expressing HEK293 cells
T1 construct: expressed in transfected cells; host or cells: HEK293 cells, transient transfection with Lipofectamine 2000; membrane fraction used
Procedure: A rat EP4 receptor cDNA was subcloned into an expression vector (pcDNA3.1-V5-His-topo, manufactured by Invitrogen Corporation) to prepare a rat EP4 expression vector. HEK293 cells were cultured in a collagen type I-treated 15 cm dish (manufactured by Asahi Techno Glass Co., Ltd.) to a confluence of 70%. An Opti-MEM culture medium at 1.2 mL/dish and a transfection reagent (Lipofectamine 2000, manufactured by Invitrogen Corporation) at 60 μL/dish were mixed, followed by being left to stand at room temperature for 5 minutes. Then, the rat EP4 receptor expression vector at 15 μg/dish was added thereto, followed by being left to stand at room temperature for 30 minutes. The liquid mixture of the transfection reagent was added into the dish, followed by culturing for 20 to 24 hours. The cell culture was carried out in a CO2 incubator (37° C., 5% CO2).
The culture medium was removed by suction, 10 mL of cooled PBS was added thereto per 15 cm dish, and the cells were scraped using a cell scraper. After washed with cooled PBS (1,200 rpm, 4° C., 5 minutes), suspended in 6 mL/dish of cooled 20 mM Tris-HCl (pH 7.4; manufactured by Nacalai Tesque Inc., 5 mM EDTA included) and homogenized using a Polytron, the homogenate was centrifuged (26,000 rpm, 20 minutes, 4° C.). The obtained precipitate was resuspended in cooled 20 mM Tris-HCl and homogenized again using a Polytron, and the homogenate was centrifuged (26,000 rpm, 20 minutes, 4° C.). The obtained precipitate was resuspended in 50 mM HEPES (pH 7.5; manufactured by Dojindo Laboratories) at 1 mL per dish, homogenized using a Polytron, and freeze-stored at −80° C. as a membrane fraction. At this time, a part thereof was used for the measurement of the protein concentration. Measurement of the protein concentration was carried out using a Protein assay stain (manufactured by Bio-Rad Laboratories) in accordance with a standard Protocol as appended in duplicate.
[^3H]PGE2 50 μL (final concentration 0.3 nM; manufactured by Perkin Elmer Co., Ltd.), 100 μL (20 μg/well) of the membrane fraction prepared from the rat EP4 expression cell, and 50 μL of a test compound were mixed in a 96-well microplate (manufactured by Sumitomo Bakelite Co., Ltd.), incubated at room temperature for 1 hour, then filtered by suction on a microplate (UniFilter-96 GF/B, manufactured by Perkin Elmer Co., Ltd.) using a cell harvester (FilterMate Harvester, manufactured by Perkin Elmer Co., Ltd.), and washed three times with 300 μL/well of a cooled assay buffer (50 mM HEPES, 10 mM MgCl2). Dilution of [^3H]PGE2 and the membrane fraction was carried out using the assay buffer, and dilution of the test compound and the unlabeled PGE2 was carried out using dimethyl sulfoxide and the assay buffer. The UniFilter-96 GF/B was treated by preliminarily washing twice with 200 μL/well of the cooled assay buffer. The UniFilter-96 GF/B after filtration was dried in a dryer overnight, 50 μL/well of a liquid scintillation cocktail (MicroScint20, manufactured by Perkin Elmer Co., Ltd.) was added thereto, and the radioactivity was then measured using a liquid scintillation counter for a microplate (TopCount, manufactured by Perkin Elmer Co., Ltd.). For measurement of the non-specific binding, an unlabeled PGE2 (final concentration 1 μM; manufactured by Cayman Chemical Company) was added. All of the measurements were carried out in duplicate, and the specific binding amount was determined by subtracting the non-specific binding amount from the total binding amount.
According to the test method as described above, the rat EP4 receptor affinity (Ki) of the compound of the present invention was measured. […] In addition, Ex means Example Compound No.

[2] = tested on: hindlimb blood flow in anesthetized rat; assay: Hindlimb blood flow increasing action in anesthetized rat; assay type: in vivo; conditions: oral, Wistar male rats
Procedure: Wistar male rats were used. The test compound was orally administered, and after 2 hours, the hindlimb blood was measured using a laser blood flow imaging apparatus (PIM II, manufactured by Integral Corporation). At 20 minutes before the measurement, 60 mg/kg of pentobarbital was intraperitoneally administered to conduct anesthesia.

T1 sequence (P43114 whole entry): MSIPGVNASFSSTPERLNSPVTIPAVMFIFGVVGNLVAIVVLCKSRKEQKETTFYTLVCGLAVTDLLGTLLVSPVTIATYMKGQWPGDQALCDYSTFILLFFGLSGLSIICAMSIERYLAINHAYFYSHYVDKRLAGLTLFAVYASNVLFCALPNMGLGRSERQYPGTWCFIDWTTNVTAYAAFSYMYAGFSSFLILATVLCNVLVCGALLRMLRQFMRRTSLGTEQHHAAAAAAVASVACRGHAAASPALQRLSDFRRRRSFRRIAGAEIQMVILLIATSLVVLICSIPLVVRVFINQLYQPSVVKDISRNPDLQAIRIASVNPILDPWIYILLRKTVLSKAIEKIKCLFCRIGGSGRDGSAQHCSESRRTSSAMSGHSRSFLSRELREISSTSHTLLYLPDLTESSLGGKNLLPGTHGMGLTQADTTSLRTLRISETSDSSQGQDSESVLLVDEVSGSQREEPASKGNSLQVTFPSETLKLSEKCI

| SMILES | Ki [1] | lowest effective dose causing a blood flow increasing action of 120% or more [2] |
| --- | --- | --- |
| CCCc1cccc(OCc2c(Cl)cc(Cl)c(=O)n2CCc2ccc(C(=O)O)cc2)c1 [Example 171] | 1.1 nM |  |
| COc1cccc(COc2c(Br)cc(Cl)cc2CCc2ccc(C(=O)O)cc2)c1 [4-(2-{3-bromo-5-chloro-2-[(3-methoxybenzyl)oxy]phenyl}ethyl)benzoic acid, reference compound] | 27 nM | 3 mg/kg |
| CC(C)c1cccc(/C=C/c2c(Cl)cc(Cl)c(=O)n2CCc2ccc(C(=O)O)cc2)c1 [Example 91] | 9.4 nM |  |
| CC(C)Oc1ccccc1OCc1c(Cl)cc(Cl)c(=O)n1CCc1ccc(C(=O)O)cc1 [Example 74] | 10 nM |  |
| CCCOc1cccc(/C=C/c2c(Cl)cc(Cl)c(=O)n2CCc2ccc(C(=O)O)cc2)c1 [Example 99] | 1.7 nM |  |
| O=C(O)c1ccc(CCn2c(/C=C/c3ccccc3OC(F)(F)F)c(Cl)cc(Cl)c2=O)cc1 [Example 106] | 30 nM |  |
| CCc1cccc(/C=C/c2c(Cl)ccc(=O)n2CCc2ccc(C(=O)O)cc2)c1 [Example 125] | 7.5 nM |  |
| COc1cccc(OCc2c(Br)cc(Br)c(=O)n2CCc2ccc(C(=O)O)cc2)c1 [Example 2, 4-(2-{3,5-dibromo-6-[(3-methoxyphenoxy)methyl]-2-oxopyridin-1(2H)-yl}ethyl)benzoic acid] | 61 nM |  |
| COc1cccc(/C=C/c2c(Br)cc(Br)c(=O)n2CCc2ccc(C(=O)O)cc2)c1 [Example 4, 4-(2-{3,5-dibromo-6-[(E)-2-(3-methoxyphenyl)vinyl]-2-oxopyridin-1(2H)-yl}ethyl)benzoic acid] | 7.1 nM |  |
| O=C(O)c1ccc(CCn2c(/C=C/c3cccc(OC(F)(F)F)c3)c(Cl)ccc2=O)cc1 [Example 126] | 4.9 nM |  |
| O=C(O)c1ccc(CCn2c(/C=C/c3cccc(OC(F)(F)F)c3)c(C3CC3)cc(Cl)c2=O)cc1 [Example 120] | 7.9 nM |  |
| CCOc1ccccc1CCc1c(Cl)cc(Cl)c(=O)n1CCc1ccc(C(=O)O)cc1 [Example 90] | 6.2 nM |  |

Continued by falling Ki [1], values first:

| Ki [1] | SMILES | lowest effective dose causing a blood flow increasing action of 120% or more [2] |
| --- | --- | --- |
| 35 nM | COc1cccc(/C=C/c2c(Br)cc(Br)c(=O)n2CCCCCCC(=O)O)c1 [Example 15] |  |
| 19 nM | O=C(O)c1ccc(CCn2c(CCc3ccccc3OC(F)(F)F)c(Cl)cc(Cl)c2=O)cc1 [Example 350] |  |
| 12 nM | O=C(O)c1ccc(CCn2c(CCc3cccc(OC(F)(F)F)c3)c(C3CC3)cc(Cl)c2=O)cc1 [Example 122] |  |
| 8.2 nM | CCc1cccc(OCc2c(C3CC3)cc(Cl)c(=O)n2CCc2ccc(C(=O)O)cc2)c1 [Example 139] |  |
| 4.4 nM | CCc1cccc(/C=C/c2c(Br)ccc(=O)n2CCc2ccc(C(=O)O)cc2)c1 [Example 124] |  |
| 2.8 nM | CC(C)c1cccc(OCc2c(Cl)cc(Cl)c(=O)n2CCc2ccc(C(=O)O)cc2)c1 [Example 1, 4-(2-{3,5-dichloro-6-[(3-isopropylphenoxy)methyl]-2-oxopyridin-1(2H)-yl}ethyl)benzoic acid] |  |
